Measured values from patent US20250049840A1, “COMPOSITIONS COMPRISING A CHEMOKINE RECEPTOR PATHWAY INHIBITOR” (DIMERIX BIOSCIENCE PTY LTD, priority 2022, published 2025).
Entries after “also recorded” stand apart in the source; their conditions may differ.

How the values were obtained:
monocytes = conditions: Yokochi (2001); Yamada (2004); cited from earlier work
MCP-1 = MCP-1 (Homo sapiens, UniProt P13500); conditions: Yokochi (2001); Yamada (2004); cited from earlier work
[1] = In Use stability study: repagermanium IR capsules reconstituted in water in a medical pot, with or without nasogastric tube (assay, appearance, pH); assay type: physicochemical; conditions: reconstituted in 15 ml water in a medical pot, up to 3 h (180 minutes)
Experimental: An In Use stability study was performed to determine the reconstitution and dosage information for administration of repagermanium IR capsules via nasogastric feeding tube. The objective of the study was to: • 1. measure the stability of the repagermanium drug product composition once reconstituted in water for administration via a gastric tube, • 2. determine if there is any residual repagermanium remaining in the medicine pot after the first 15 mL solution has been removed, and • 3. identify if additional flushing of the nasogastric tube will be required to deliver the correct dose of repagermanium. There were 6 experiments in total. Each experiment was performed in duplicate (except for micro tests). [table]

MCP-1, sequence (P13500 24-99, species assumed): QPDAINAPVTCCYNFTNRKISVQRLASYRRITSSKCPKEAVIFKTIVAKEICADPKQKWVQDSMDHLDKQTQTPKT

Row | Structure (SMILES) | inhibition of in vitro chemotactic migration of monocytes by MCP-1 (monocytes) | inhibition of MCP-1 binding (MCP-1) | chemical and microbiological stability after reconstitution [1]
1 | O=C(O)C[CH2][Ge](=[O])[O][Ge](=[O])[CH2]CC(=O)O [Propagermanium, 3-[(2-carboxyethyl-oxogermyl)oxy-oxogermyl] propanoic acid] | specifically inhibit in vitro chemotactic migration of monocytes by MCP-1; also recorded: inhibits in-vitro chemotactic migration of monocytes by MCP-1 | does not inhibit MCP-1 binding | –
2 | O=C(O)C[CH2][Ge](=[O])[O][Ge](=[O])[CH2]CC(=O)O [repagermanium, 3-[(2-carboxyethyl-oxogermyl)oxy-oxogermyl] propanoic acid] | – | – | chemically and microbiologically stable
